The text below walks through data of patent US10774064B2 (Cadent Therapeutics, Inc., priority 2016, dated 2020).

For the assay, the target named is T1, small-conductance Ca2+-activated K+ channels (SK channels, subtype 2) (Homo sapiens, UniProt Q9H2S1).
T1 construct: expressed in transfected cells; host or cells: HEK293
Put plainly: whole-cell patch-clamp of ionic current through SK2 channels in HEK293 cells (SC100). Type of assay: cell-based. The conditions noted are these: whole-cell patch-clamp, HEK293 cells expressing SK2 channels; concentration that increases the basal current by 100%. An outline of the steps:
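Whole-cell patch-clamp recording of current in HEK293 cells expressing SK2 channels. SC100 is the compound concentration that increases basal current by 100%.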

Consider `COC(C)c1cc(-c2nc(C)cs2)nc(NC2CCC(F)(F)CC2)n1` (stereo not shown) [NSSy6697, N-(4,4-difluorocyclohexyl)-4-(1-methoxyethyl)-6-(4-methylthiazol-2-yl)pyrimidin-2-amine], for which the “SC100 (μM)” value is on record as “+ (+ means >1 uM)”.

Turning to `Cc1ccn(-c2cc(N)nc(NC3CCC(F)(F)CC3)n2)n1` [NSSy6698, N2-(4,4-difluorocyclohexyl)-6-(3-methyl-1H-pyrazol-1-yl)pyrimidine-2,4-diamine], the “SC100 (μM)” value is given as “+ (+ means >1 uM)”.

Consider `COCCNc1cc(-n2ccc(C)n2)nc(NC2CCC(F)(F)CC2)n1` [NSSy6700], for which the “SC100 (μM)” value is “+ (+ means >1 uM)”.

In the case of `Cc1csc(-c2cc(-c3nc(C)cs3)nc(NC3CCC(F)(F)CC3)n2)n1` [NSSy6704, N-(4,4-difluorocyclohexyl)-4,6-bis(4-methylthiazol-2-yl)pyrimidin-2-amine], the “SC100 (μM)” value is reported as “+ (+ means >1 uM)”.

For `Cc1csc(-c2cc(C#N)nc(NC3CCC(F)(F)CC3)n2)n1` [NSSy6710, 2-((4,4-difluorocyclohexyl)amino)-6-(4-methylthiazol-2-yl)pyrimidine-4-carbonitrile], the “SC100 (μM)” value is recorded as “+ (+ means >1 uM)”.

For the compound `COCc1cc(-c2nc(C)cs2)nc(NC2CCC(F)(F)CC2)n1` [NSSy6711, N-(4,4-difluorocyclohexyl)-4-(methoxymethyl)-6-(4-methylthiazol-2-yl)pyrimidin-2-amine], the “SC100 (μM)” value is given as “++ (++ means 200 nM-1000 nM)”.

As for `Cc1ccn(-c2cc(OCCn3nncc3C)cc(NC3CCC(F)(F)CC3)n2)n1` [NSSy6719], the “SC100 (μM)” value is on record as “+++ (+++ means <200 nM)”.

As to `Cc1cc(C)n(-c2cc(C#N)nc(NC3CCC(F)(F)CC3)n2)n1` [NSSy6721, 2-((4,4-difluorocyclohexyl)amino)-6-(3,5-dimethyl-1H-pyrazol-1-yl)pyrimidine-4-carbonitrile], the “SC100 (μM)” value was “+ (+ means >1 uM)”.

Regarding `Cc1ccn(-c2cc(C#N)nc(NC3CCC(F)(F)CC3)n2)n1` [NSSy6722, 2-((4,4-difluorocyclohexyl)amino)-6-(3-methyl-1H-pyrazol-1-yl)pyrimidine-4-carbonitrile], the “SC100 (μM)” value is “+ (+ means >1 uM)”.

For the compound `COCc1cc(-n2nc(C)cc2C)nc(NC2CCC(F)(F)CC2)n1` [NSSy6724], the “SC100 (μM)” value is recorded as “++ (++ means 200 nM-1000 nM)”.

In the case of `CO[C@@H](C)c1cc(-c2nc(C)cs2)nc(NC2CCC(F)(F)CC2)n1` [NSSy6729, (S)—N-(4,4-difluorocyclohexyl)-4-(1-methoxyethyl)-6-(4-methylthiazol-2-yl)pyrimidin-2-amine], the “SC100 (μM)” value is listed as “+ (+ means >1 uM)”.

In the case of `Cc1csc(-c2cc(CO)cc(NC3CCC(F)(F)CC3)n2)n1` [NSSy6730, (2-((4,4-difluorocyclohexyl)amino)-6-(4-methylthiazol-2-yl)pyridin-4-yl) methanol], the “SC100 (μM)” value is recorded as “++ (++ means 200 nM-1000 nM)”.

Consider `Cc1nc(NC2CCC(F)(F)CC2)nc(-n2nc(C)c(Br)c2C)c1Br` [NSSy6736, 5-bromo-4-(4-bromo-3,5-dimethyl-1H-pyrazol-1-yl)-N-(4,4-difluorocyclohexyl)-6-methylpyrimidin-2-amine], for which the “SC100 (μM)” value is given as “+ (+ means >1 uM)”.

As to `COCc1cc(-n2ccc(C)n2)nc(NC2CCC(F)(F)CC2)n1` [NSSy6744, N-(4,4-difluorocyclohexyl)-4-(methoxymethyl)-6-(3-methyl-1H-pyrazol-1-yl)pyrimidin-2-amine], the “SC100 (μM)” value is “++ (++ means 200 nM-1000 nM)”.

`Cc1csc(-c2cc(C(O)c3nnc(C)o3)cc(NC3CCC(F)(F)CC3)n2)n1` (stereo not shown) [NSSy6750, (2-((4,4-difluorocyclohexyl)amino)-6-(4-methylthiazol-2-yl)pyridin-4-yl)(5-methyl-1,3,4-oxadiazol-2-yl)methanol]: the “SC100 (μM)” value is recorded as “++ (++ means 200 nM-1000 nM)”.

Regarding `Cc1ccn(-c2cc(CO)cc(Nc3ccc(F)cc3F)n2)n1` [NSSy6773], the “SC100 (μM)” value is on record as “++ (++ means 200 nM-1000 nM)”.

As for `Cc1csc(-c2cc(C(O)Cc3nnco3)cc(NC3CCC(F)(F)CC3)n2)n1` (stereo not shown) [NSSy6782, 1-(2-((4,4-difluorocyclohexyl)amino)-6-(4-methylthiazol-2-yl)pyridin-4-yl)-2-(1,3,4-oxadiazol-2-yl)ethan-1-ol], the “SC100 (μM)” value was “++ (++ means 200 nM-1000 nM)”.

Turning to `Cc1ccn(-c2cc(CN(C)C)nc(NC3CCC(F)(F)CC3)n2)n1` [NSSy6783, N-(4,4-difluorocyclohexyl)-4-((dimethylamino)methyl)-6-(3-methyl-1H-pyrazol-1-yl)pyrimidin-2-amine], the “SC100 (μM)” value is recorded as “++ (++ means 200 nM-1000 nM)”.

In the case of `Cc1ccn(-c2cc(CC#N)nc(NC3CCC(F)(F)CC3)n2)n1` [NSSy6800, 2-(2-((4,4-difluorocyclohexyl)amino)-6-(3-methyl-1H-pyrazol-1-yl)pyrimidin-4-yl)acetonitrile], the “SC100 (μM)” value is “++ (++ means 200 nM-1000 nM)”.

For the compound `Cc1ccn(-c2cc(CO)cc(N(C(N)=O)C3CCC(F)(F)CC3)n2)n1` [NSSy6812, 1-(4,4-difluorocyclohexyl)-1-(4-(hydroxymethyl)-6-(3-methyl-1H-pyrazol-1-yl)pyridin-2-yl) urea], the “SC100 (μM)” value is listed as “+ (+ means >1 uM)”.

With `Cc1ccn(-c2cc(C(O)c3cnco3)cc(NC3CCC(F)(F)CC3)n2)n1` (stereo not shown) [NSSy6846], the “SC100 (μM)” value was “+ (+ means >1 uM)”.

For `Cc1cn(CCOc2cc(NC3CCC(F)(F)CC3)nc(-n3ccc(C)n3)c2)nn1` [NSSy6849], the “SC100 (μM)” value was “++ (++ means 200 nM-1000 nM)”.

With `COc1cc(NC2CCC(F)(F)CC2)nc(-n2ccc(C3CC3)n2)n1` [NSSy6850], the “SC100 (μM)” value is “++ (++ means 200 nM-1000 nM)”.

Turning to `COCc1cc(NC2CCC(F)(F)CC2)nc(-n2nc(C)cc2C)c1` [NSSy6861, N-(4,4-difluorocyclohexyl)-6-(3,5-dimethyl-1H-pyrazol-1-yl)-4-(methoxymethyl)pyridin-2-amine], the “SC100 (μM)” value is reported as “++ (++ means 200 nM-1000 nM)”.

As to `COCc1cc(NC2CCC(F)(F)CC2)nc(-n2ccc(C3CC3)n2)n1` [NSSy6880], the “SC100 (μM)” value is “++ (++ means 200 nM-1000 nM)”.

Take `CC(O)c1cc(NC2CCC(F)(F)CC2)nc(-n2ccc(C3CC3)n2)n1` (stereo not shown) [NSSy6881, 1-(2-(3-cyclopropyl-1H-pyrazol-1-yl)-6-((4,4-difluorocyclohexyl)amino)pyrimidin-4-yl) ethan-1-ol]: the “SC100 (μM)” value was “+ (+ means >1 uM)”.

Turning to `COC(=O)N1CCC(c2cc(NC3CCC(F)(F)CC3)nc(-n3ccc(C)n3)c2)CC1` [NSSy6885], the “SC100 (μM)” value is reported as “+++ (+++ means <200 nM)”.

For the compound `CC(=O)N1CCN(c2cc(-n3ccc(F)n3)nc(NC3CCC(F)(F)CC3)n2)CC1` [NSSy6886], the “SC100 (μM)” value is reported as “+ (+ means >1 uM)”.

For the compound `Cc1ccn(-c2cc(C3CCN(C)CC3)cc(NC3CCC(F)(F)CC3)n2)n1` [NSSy6888], the “SC100 (μM)” value was “+++ (+++ means <200 nM)”.

In the case of `COc1cc(NC2CCC(F)(F)CC2)nc(-c2cccc(C)n2)n1` [NSSy6889], the “SC100 (μM)” value was “+ (+ means >1 uM)”.

As to `Cc1ccn(-c2cc(COC(N)=O)cc(NC3CCC(F)(F)CC3)n2)n1` [NSSy6891, (2-((4,4-difluorocyclohexyl)amino)-6-(3-methyl-1H-pyrazol-1-yl)pyridin-4-yl)methyl carbamate], the “SC100 (μM)” value is given as “++ (++ means 200 nM-1000 nM)”.

As to `Cc1ccn(-c2cc(C3CCNCC3)cc(NC3CCC(F)(F)CC3)n2)n1` [NSSy6897, N-(4,4-difluorocyclohexyl)-6-(3-methyl-1H-pyrazol-1-yl)-4-(piperidin-4-yl)pyridin-2-amine], the “SC100 (μM)” value was “++ (++ means 200 nM-1000 nM)”.

For `CC(=O)N1CCN(c2cc(-n3ccc(C4CC4)n3)nc(NC3CCC(F)(F)CC3)n2)CC1` [NSSy6909, 1-(4-(6-(3-cyclopropyl-1H-pyrazol-1-yl)-2-((4,4-difluorocyclohexyl)amino)pyrimidin-4-yl)piperazin-1-yl)ethan-1-one], the “SC100 (μM)” value is given as “++ (++ means 200 nM-1000 nM)”.

`CC(=O)N1CCC(c2cc(NC3CCC(F)(F)CC3)nc(-n3ccc(C)n3)c2)CC1` [NSSy6910]: the “SC100 (μM)” value is reported as “+++ (+++ means <200 nM)”.

Consider `Cc1ccn(-c2cc(OC3CCS(=O)(=O)CC3)nc(NC3CCC(F)(F)CC3)n2)n1` [NSSy6913], for which the “SC100 (μM)” value is “++ (++ means 200 nM-1000 nM)”.

For the compound `CC(=O)N1CCC(Oc2cc(-n3ccc(C)n3)nc(NC3CCC(F)(F)CC3)n2)CC1` [NSSy6914], the “SC100 (μM)” value was “+++ (+++ means <200 nM)”.

`CC(=O)N1CCN(c2cc(-n3ccc(CF)n3)nc(NC3CCC(F)(F)CC3)n2)CC1` [NSSy6917]: the “SC100 (μM)” value is on record as “++ (++ means 200 nM-1000 nM)”.

On to `COC(=O)N1CCN(c2cc(-n3ccc(C)n3)nc(NC3CCC(F)(F)CC3)n2)CC1` [NSSy6924, methyl 4-(2-((4,4-difluorocyclohexyl)amino)-6-(3-methyl-1H-pyrazol-1-yl)pyrimidin-4-yl)piperazine-1-carboxylate], for which the “SC100 (μM)” value is recorded as “++ (++ means 200 nM-1000 nM)”.

Consider `CC(=O)N1CCN(c2cc(-n3ccc(C(F)F)n3)nc(NC3CCC(F)(F)CC3)n2)CC1` [NSSy6930, 1-(4-(2-((4,4-difluorocyclohexyl)amino)-6-(3-(difluoromethyl)-1H-pyrazol-1-yl)pyrimidin-4-yl)piperazin-1-yl)ethan-1-one], for which the “SC100 (μM)” value is listed as “++ (++ means 200 nM-1000 nM)”.

With `CC(=O)N1CCN(c2cc(-n3ccc(CO)n3)nc(NC3CCC(F)(F)CC3)n2)CC1` [NSSy6931, 1-(4-(2-((4,4-difluorocyclohexyl)amino)-6-(3-(hydroxymethyl)-1H-pyrazol-1-yl)pyrimidin-4-yl)piperazin-1-yl)ethan-1-one], the “SC100 (μM)” value is “+ (+ means >1 uM)”.

In the case of `Cc1cc(NC2CCC(F)(F)CC2)nc(-n2ccc(C3CC3)n2)n1` [NSSy6935], the “SC100 (μM)” value is “++ (++ means 200 nM-1000 nM)”.

With `COc1ccn(-c2cc(N3CCN(C(C)=O)CC3)nc(NC3CCC(F)(F)CC3)n2)n1` [NSSy6936], the “SC100 (μM)” value is “+ (+ means >1 uM)”.

For the compound `FC1(F)CCC(Nc2ccnc(-n3ccc(C4CC4)n3)n2)CC1` [NSSy6941, 2-(3-cyclopropyl-1H-pyrazol-1-yl)-N-(4,4-difluorocyclohexyl)pyrimidin-4-amine], the “SC100 (μM)” value is “+ (+ means >1 uM)”.
